± gives the expanded uncertainty stated by the source.
Key:
[1] = refractive index (other wavelength) (dimensionless); conditions: 100 kPa, Liquid, Wavelength=632.8 nm, minimum deviation angle method
[2] = refractive index (Na D-line) (dimensionless); conditions: 298.15 K; 101.33 kPa; Liquid; Standard Abbe refractometry
[3] = refractive index (other wavelength) (dimensionless); xn = mol fraction of the nth substance listed; conditions: 100 kPa, Liquid, Wavelength=632.8 nm, minimum deviation angle method, x2 = 0

`CCCC[n+]1ccccc1.F[B-](F)(F)F` [1-butylpyridinium tetrafluoroborate] gave a refractive index ([1]; 281.73 K) of 1.4481 ± 0.0003, a refractive index ([1]; 282.78 K) of 1.4478 ± 0.0003 and a refractive index ([1]; 284.14 K) of 1.4475 ± 0.0003. The refractive index ([1]; 285.74 K) was 1.4471 ± 0.0003, the refractive index ([1]; 286.94 K) was 1.4468 ± 0.0003 and the refractive index ([1]; 288.24 K) was 1.4464 ± 0.0003. It also gave a refractive index ([1]; 289.38 K) of 1.4461 ± 0.0003, a refractive index ([1]; 290.37 K) of 1.4458 ± 0.0003 and a refractive index ([1]; 292.15 K) of 1.4454 ± 0.0003. For the same compound, the refractive index ([1]; 293.41 K) was 1.4451 ± 0.0003, the refractive index ([1]; 295 K) was 1.4446 ± 0.0003 and the refractive index ([1]; 296.89 K) was 1.444 ± 0.0003. The refractive index [2] was 1.4459 ± 0.0007.

`CCO` [ethanol] showed a refractive index ([1]; 282.04 K) of 1.3645 ± 0.0002, a refractive index ([1]; 283.11 K) of 1.364 ± 0.0002 and a refractive index ([1]; 284.04 K) of 1.3637 ± 0.0002. The refractive index ([1]; 285.65 K) was 1.363 ± 0.0002, the refractive index ([1]; 286.62 K) was 1.3626 ± 0.0002 and the refractive index ([1]; 288.17 K) was 1.362 ± 0.0002. For the same compound, the refractive index ([1]; 289.33 K) was 1.3615 ± 0.0002, the refractive index ([1]; 290.8 K) was 1.3609 ± 0.0002 and the refractive index ([1]; 291.84 K) was 1.3604 ± 0.0002. For the same compound, the refractive index ([1]; 292.94 K) was 1.36 ± 0.0002, the refractive index ([1]; 293.77 K) was 1.3596 ± 0.0002 and the refractive index ([1]; 295.49 K) was 1.3589 ± 0.0002. It also gave a refractive index ([1]; 296.51 K) of 1.3585 ± 0.0002, a refractive index ([1]; 297.44 K) of 1.3581 ± 0.0002 and a refractive index ([1]; 298.14 K) of 1.3578 ± 0.0002. The refractive index [2] was 1.3596 ± 0.0007.

Work on `CCO` [ethanol] + CCCC[n+]1ccccc1.F[B-](F)(F)F yielded a refractive index ([3]; 282.04 K) of 1.3645 ± 0.0002, a refractive index ([3]; 283.11 K) of 1.364 ± 0.0002 and a refractive index ([3]; 284.04 K) of 1.3637 ± 0.0002. It also gave a refractive index ([3]; 285.65 K) of 1.363 ± 0.0002, a refractive index ([3]; 286.62 K) of 1.3626 ± 0.0002 and a refractive index ([3]; 288.17 K) of 1.362 ± 0.0002. It also gave a refractive index ([3]; 289.33 K) of 1.3615 ± 0.0002, a refractive index ([3]; 290.8 K) of 1.3609 ± 0.0002 and a refractive index ([3]; 291.84 K) of 1.3604 ± 0.0002. It also gave a refractive index ([3]; 292.94 K) of 1.36 ± 0.0002, a refractive index ([3]; 293.77 K) of 1.3596 ± 0.0002 and a refractive index ([3]; 295.49 K) of 1.3589 ± 0.0002. For the same compound, the refractive index ([3]; 296.51 K) was 1.3585 ± 0.0002, the refractive index ([3]; 297.44 K) was 1.3581 ± 0.0002 and the refractive index ([3]; 298.14 K) was 1.3578 ± 0.0002.

From the NIST ThermoML archive (doi:10.1016/j.jct.2017.02.014)
